Legend:
[1] = biological target: T1, CmeB (Campylobacter jejuni, UniProt Q8RTE4); assay: isothermal titration calorimetry; type: binding; details: 20 mM Na-HEPES pH 7.5, 0.03% DDM, room temperature; 20 μM monomer in cell; no cyclooctatetraene
T1 construct: full-length, N-terminal 6xHis (pET15b), E. coli BL21(DE3)deltaacrB host; homotrimer

[2] = biological target: Campylobacter jejuni CmeB multidrug efflux pump (Campylobacter jejuni) (UniProt Q8RTE4); assay: crystal structure

Compound: C[C@H](CCC(=O)NCCS(=O)(=O)O)[C@H]1CC[C@H]2[C@@H]3CC[C@@H]4C[C@H](O)CC[C@]4(C)[C@H]3C[C@H](O)[C@]12C [taurodeoxycholate]
- KD [1]: examine the binding of taurodeoxycholate to the purified CmeB transporter

Compound: Campylobacter jejuni CmeB multidrug efflux pump (from UniProt Q8RTE4) (natural protein)
- stoichiometry N [2]: 3

Source: article PMC5537355, “Structures and transport dynamics of a Campylobacter jejuni multidrug efflux pump” (Nature Communications, 2017)
